Values of other authors in patent US8703192B2, “Dosage form containing pantoprazole as active ingredient” (Takeda GmbH, priority 2003, dated 2014).

Conditions: in comparison to pantoprazole itself or to pantoprazole sodium sesquihydrate

stability properties: improved stability properties
Structure (SMILES): COc1ccnc(C[S+]([O-])c2nc3cc(OC(F)F)ccc3[n-]2)c1OC.COc1ccnc(C[S+]([O-])c2nc3cc(OC(F)F)ccc3[n-]2)c1OC.O.O.[Mg+2] (stereo not shown) [Magnesium bis[5-[difluoromethoxy]-2-[[3,4-dimethoxy-2-pyridinyl]-methyl]sulfinyl]-1H-benzimidazolide]dihydrate]
